According to ChEMBL document CHEMBL5303304, “EUbOPEN Chemogenomics Library - IncuCyte” (2023):

Assays:
Format in all cases: toxicity, cell-based
[1] = tested on: U2OS; assay: Incucyte cell viability with U2OS; details: human, 10 µM, compound concentration 10 uM
[2] = tested on: Fibroblast; assay: Incucyte cell viability with human fibroblast; details: 10 µM, compound concentration 10 uM
[3] = tested on: HEK-293T; assay: Incucyte cell viability with HEK293T; details: human, 10 µM, compound concentration 10 uM
Further: unitless GR value; below 1 slowed growth and below 0 cell loss.

SMILES | Growth Rate ([1]; 12 h, replicate number 2) | Growth Rate ([2]; 0 h, replicate number 2) | Growth Rate ([2]; 6 h, replicate number 1) | Growth Rate ([2]; 6 h, replicate number 2) | Growth Rate ([3]; 0 h, replicate number 1) | Growth Rate ([3]; 0 h, replicate number 2) | Growth Rate ([3]; 6 h, replicate number 1) | Growth Rate ([3]; 6 h, replicate number 2) | Growth Rate ([3]; 12 h, replicate number 2) | Growth Rate ([3]; 18 h, replicate number 2) | Growth Rate ([3]; 24 h, replicate number 2) | Growth Rate ([1]; 6 h, replicate number 1) | Growth Rate ([1]; 12 h, replicate number 1) | Growth Rate ([1]; 18 h, replicate number 1) | Growth Rate ([1]; 24 h, replicate number 1) | Growth Rate ([1]; 24 h, replicate number 2) | Growth Rate ([2]; 12 h, replicate number 2) | Growth Rate ([1]; 6 h, replicate number 2) | Growth Rate ([1]; 18 h, replicate number 2) | Growth Rate ([3]; 12 h, replicate number 1) | also measured
C[C@H](c1ccnc(Nc2nc3ccc(-c4cc(N(C)C)ncn4)cc3[nH]2)c1)N1CCN(C(=O)CC(F)(F)F)CC1 [BAY-985] | 0.94 | -1 | 0.99 | -0.72 | 0.79 | 0.27 | 0.4 | 0.84 | 0.95 | 0.94 | 0.92 | – | – | – | – | – | – | – | – | – | Growth Rate ([1]; 0 h, replicate number 1): -0.23; Growth Rate ([2]; 12 h, replicate number 1): -1; Growth Rate ([2]; 24 h, replicate number 1): 0.04
Cc1nc(-c2ccc(C(F)(F)F)cc2)sc1C(=O)NCc1ccc(OC(C)(C)C(=O)O)cc1 [GW590735] | – | 0.77 | 0.76 | 0.99 | 0.96 | 0.73 | – | 0.83 | 0.93 | 0.92 | 0.72 | 0.91 | 0.91 | 0.93 | 0.97 | – | – | – | – | – | Growth Rate ([1]; 0 h, replicate number 1): -0.11; Growth Rate ([2]; 12 h, replicate number 1): 0.82; Growth Rate ([2]; 18 h, replicate number 1): 0.71; Growth Rate ([2]; 24 h, replicate number 1): 0.83
CC(C)c1cc(Br)c(NC(=O)Nc2cccnc2)c(Br)c1 | – | – | – | -0.99 | – | 0.91 | – | 0.84 | – | – | – | – | – | – | – | 0.98 | 0.73 | – | – | – | Growth Rate ([1]; 0 h, replicate number 1): -0.34; Growth Rate ([2]; 18 h, replicate number 1): -0.82; Growth Rate ([2]; 18 h, replicate number 2): 0.89
COc1cc(C(=O)NC2CCN(C)CC2)ccc1Nc1ncc(C(F)(F)F)c(NCc2ccc(C)cc2N(C)S(C)(=O)=O)n1.O=CO.O=CO | -0.43 | – | -0.43 | -0.42 | – | -1 | -0.77 | -0.51 | -0.48 | -0.33 | -0.34 | 0.97 | 0.11 | -0.12 | -0.27 | -0.53 | -0.43 | -0.57 | -0.46 | -0.63 | Growth Rate ([1]; 0 h, replicate number 1): -0.98; Growth Rate ([1]; 0 h, replicate number 2): -0.24; Growth Rate ([2]; 12 h, replicate number 1): -0.37; Growth Rate ([2]; 18 h, replicate number 1): -0.52; Growth Rate ([2]; 18 h, replicate number 2): -0.55; Growth Rate ([2]; 24 h, replicate number 1): -0.58; Growth Rate ([2]; 24 h, replicate number 2): -0.54; Growth Rate ([3]; 18 h, replicate number 1): -0.54; Growth Rate ([3]; 24 h, replicate number 1): -0.45
CC(C)(C)S(=O)(=O)c1ccc2nccc(Nc3n[nH]c4ccc(F)cc34)c2c1 | 0.12 | – | – | 0.54 | – | – | -0.03 | -0.05 | -0.13 | -0.14 | -0.15 | 0.95 | 0.21 | 0.1 | 0.06 | -0.07 | 0.34 | 0.2 | -0.02 | -0.18 | Growth Rate ([1]; 0 h, replicate number 1): -0.83; Growth Rate ([2]; 12 h, replicate number 1): 0.85; Growth Rate ([2]; 18 h, replicate number 1): 0.67; Growth Rate ([2]; 18 h, replicate number 2): 0.31; Growth Rate ([2]; 24 h, replicate number 1): 0.45; Growth Rate ([2]; 24 h, replicate number 2): 0.22; Growth Rate ([3]; 18 h, replicate number 1): -0.12; Growth Rate ([3]; 24 h, replicate number 1): -0.13
Cn1cc(-c2ccc3occ(-c4cccc(-c5ccncc5)c4)c3n2)cn1 | 0.51 | – | – | -0.75 | – | – | -0.45 | -0.34 | 0 | 0.33 | 0.52 | -0.24 | 0.6 | 0.65 | 0.7 | 0.87 | 0.4 | 0.44 | 0.73 | -0.46 | Growth Rate ([1]; 0 h, replicate number 2): 0.89; Growth Rate ([2]; 0 h, replicate number 1): 0.22; Growth Rate ([2]; 12 h, replicate number 1): -0.8; Growth Rate ([2]; 18 h, replicate number 1): 0.07; Growth Rate ([2]; 18 h, replicate number 2): 0.54; Growth Rate ([2]; 24 h, replicate number 1): 0.25; Growth Rate ([2]; 24 h, replicate number 2): 0.73; Growth Rate ([3]; 18 h, replicate number 1): -0.15; Growth Rate ([3]; 24 h, replicate number 1): 0.35
COc1cc(N2CCN(C)CC2)ccc1Nc1nccc(-c2cn(C)c3cnccc23)n1 | – | 0.04 | -1 | – | -0.65 | -0.69 | – | – | – | – | 0.8 | – | – | – | 0.75 | – | – | – | – | – | Growth Rate ([1]; 0 h, replicate number 2): -0.71
Cn1cc(-c2ccc(N(C(=O)NCc3ccccc3)[C@H]3CC[C@H](Nc4ccc(C#N)cn4)CC3)cc2)ccc1=O | – | -0.77 | 0.65 | 0.48 | -0.73 | 0.96 | -0.2 | -0.56 | -0.56 | -0.48 | -0.39 | 0.45 | 0.28 | 0.12 | -0.14 | -0.05 | -0.01 | 0.58 | 0.06 | -0.28 | Growth Rate ([2]; 0 h, replicate number 1): 0.84; Growth Rate ([2]; 12 h, replicate number 1): 0.45; Growth Rate ([2]; 18 h, replicate number 1): 0.17; Growth Rate ([2]; 18 h, replicate number 2): -0.04; Growth Rate ([2]; 24 h, replicate number 1): 0.16; Growth Rate ([2]; 24 h, replicate number 2): -0.08; Growth Rate ([3]; 18 h, replicate number 1): -0.21; Growth Rate ([3]; 24 h, replicate number 1): -0.14
CC[C@@H](CO)Nc1nc(Nc2cccc(NC(=O)C(C)(C)C)c2)ncc1F | 0.83 | 0.61 | – | – | 0.29 | – | – | – | – | – | – | 0.56 | 0.66 | 0.87 | 0.91 | 0.89 | – | 0.8 | 0.86 | 0.87 | Growth Rate ([1]; 0 h, replicate number 2): 0.94; Growth Rate ([3]; 24 h, replicate number 1): 0.96
Fc1cccc(-n2cnc3c(NCc4nc5ccc(F)c(F)c5[nH]4)nc(N4CCOCC4)nc32)c1 | – | – | -0.08 | -0.22 | -0.62 | – | -0.14 | -0.21 | – | -0.31 | -0.25 | 0.56 | 0.06 | -0.23 | -0.23 | 0.38 | -0.11 | – | 0.61 | -0.36 | Growth Rate ([2]; 12 h, replicate number 1): 0.02; Growth Rate ([2]; 18 h, replicate number 1): 0.04; Growth Rate ([2]; 18 h, replicate number 2): -0.03; Growth Rate ([2]; 24 h, replicate number 1): -0.01; Growth Rate ([2]; 24 h, replicate number 2): 0.03; Growth Rate ([3]; 18 h, replicate number 1): -0.28; Growth Rate ([3]; 24 h, replicate number 1): -0.21
CN1CCN(C(=O)c2ccc3cc2OCCOCCNc2ccn4ncc-3c4n2)CC1 | – | 0.92 | 0.73 | 0.92 | – | – | 0.93 | 0.6 | 0.93 | 0.85 | 0.89 | – | – | 0.81 | – | – | – | – | – | – | Growth Rate ([1]; 0 h, replicate number 1): -0.07; Growth Rate ([3]; 18 h, replicate number 1): 0.93; Growth Rate ([3]; 24 h, replicate number 1): 0.92
O=C(NC[C@@H]1[C@H]2CN(C(=O)OCc3cc(C(F)(F)F)cc(C(F)(F)F)c3)C[C@@H]12)c1ccc2[nH]nnc2c1 [BI 2545] | -0.13 | -0.7 | 0.33 | -0.08 | – | – | -0.09 | -0.7 | 0.56 | 0.94 | 0.91 | 0.88 | – | – | – | 0.42 | 0.94 | -0.56 | 0.23 | 0.5 | Growth Rate ([1]; 0 h, replicate number 2): -0.98; Growth Rate ([3]; 18 h, replicate number 1): 0.6; Growth Rate ([3]; 24 h, replicate number 1): 0.76
Cc1nc2ccccc2c(-c2ccc3c4c(ccnc24)CCO3)c1[C@H](OC(C)(C)C)C(=O)O [BI-224436] | 0.72 | – | – | – | 0.67 | 0.86 | – | – | – | – | – | 0.57 | 0.77 | – | – | 0.75 | 0.76 | 0.42 | 0.85 | – | Growth Rate ([1]; 0 h, replicate number 2): -0.37
CC(=O)N1CCN([C@H]2CCC[C@@H](NC(=O)c3cc4c(F)ccc(C)c4[nH]3)C2)CC1.O=C(O)C(F)(F)F | 0.96 | -0.08 | – | 0.42 | 0.94 | -0.6 | 0.9 | 0.46 | 0.4 | 0.68 | 0.48 | – | 0.84 | – | 0.99 | 0.88 | 0.88 | 0.95 | 0.94 | 0.75 | Growth Rate ([1]; 0 h, replicate number 1): 0.28; Growth Rate ([1]; 0 h, replicate number 2): 0.78; Growth Rate ([2]; 0 h, replicate number 1): -0.07; Growth Rate ([2]; 18 h, replicate number 2): 0.88; Growth Rate ([2]; 24 h, replicate number 2): 0.9
